# Test results from patent US20140219999A1, “TREATMENT OF COLON CANCER USING COMPLEMENT INHIBITORS” (priority 2011, published 2014).
# What was measured:
# [1] = test system: activated AKT (pS473), IKK (pS176) and NFκB (pS536); assay: Western analysis of intestinal tissue of treated B6.Apc^Min/+ mice (NFκB signaling); format: in vivo, mouse; details: after 30 days on HFCoco diet and treatment; compared to control inhibitor
# Source text: To test the function of this reduction in polyp number in mice treated with the C5aR inhibitor, intestinal tissues were collected and used to extract RNA and protein for expression and western analysis, respectively.
# [2] = test system: B6.Apc^Min/+ model of intestinal neoplasia; assay: Polyp number and cross sectional polyp area in B6.Apc^Min/+ mice treated with C5aR antagonist on HFCoco diet; format: in vivo, mouse; details: 1 mg/kg subcutaneously every other day for 30 days
# Source text: B6.Apc^Min/+ is a mouse model for intestinal neoplasia that carry a mutation in the Apc gene similar to that found in over 85% of sporadic colon cancer cases in humans. The APC mutation results in improper binding of β-catenin to the degradation complex and models the mutation observed in most sporadic human colon cancer tumors. B6.Apc^Min/+ mice develop 50-80 intestinal polyps in the small intestine by 120 days of age (Heijstek et al., 2005, Digest Surg. 22: 16-25). The APC amino acid sequence is 90% identical to that of the human APC.
# B6.Apc^Min/+ and the CCSs (A2.Apc^Min/+, A7.Apc^Min/+, A9.Apc^Min/+, A17.Apc^Min/+, and A19.Apc^Min/+) along with the corresponding wild-type controls (B6, B6.A2, B6.A7, B6.A9, B6.A17 and B6.A19, respectively) were born and maintained on the standard 5010 diet until 30 days of age. Male mice were genotyped for the APC mutation using DNA that was purified from tail tissue taken at weaning. […] Body weight and length (to calculate BMI) as well as epidydimal fat pad mass were measured at the final time point.
# Body weight and length were measured to calculate body mass index (BMI). Polyp number and polyp size from the small and large intestine were measured. […] The large intestine was excised and analyzed as one region (LI-1). […]
substance,measurement,setting,value
Acetyl-Phe-[Orn-Pro-D-cyclohexylalanine-Trp-Arg] [PMX-53],activated AKT (pS473) protein level in intestine,[1],significant reduction
same,activated IKK (pS176) protein level in intestine,[1],significant reduction
same,activated NFκB (pS536) protein level in intestine,[1],significant reduction
same,cross sectional polyp area,[2],significantly reduced
same,polyp number,[2]; compared to untreated mice or mice injected with control inhibitor,significant reduction
